Where two headings read alike, the source gives them in different places.

The values below come from paper PMC5736695, “Lectin activity of the pneumococcal pilin proteins” (Scientific Reports, 2017).

Holding throughout (format): binding
One test deals with RrgA SPEC6B (Streptococcus pneumoniae, UniProt A7KT31). In words: SPR (Biacore T100). The note with it: read-out: RrgA SPEC6B; free oligosaccharide; protein immobilised on CM5 chip; glycans 160 nM to 100 µM. From the text:
SPR (Biacore T100) on RrgA SPEC6B
Background: In SPR one partner is held on a chip, and binding of the other changes the refractive index at the surface.

For another test, the target named is T1, RrgA TIGR4 (RrgA T4) (Streptococcus pneumoniae, UniProt A0A0H2UNT6).
T1 construct: gene SP_0462
The test can be described thus: SPR (Biacore T100). From the text: SPR (Biacore T100) on RrgA TIGR4 (RrgA T4)

A further test deals with T2, RrgC T4 (Streptococcus pneumoniae, UniProt A0A0H2UNM0).
T2 construct: gene SP_0464
The test can be described thus: glycan array, fluorescence. The settings on record: glycan printed on slide via spacer; PBS, 1 mM MgCl2, 1 mM CaCl2; protein pre-complexed with anti-His and labelled secondary antibodies. From the text:
glycan array, fluorescence on RrgC T4

For the next test, the target named is T3, RrgB T4 (Streptococcus pneumoniae, UniProt A0A0H2UNM7).
T3 construct: gene SP_0463
The test can be described thus: glycan array, fluorescence. The note with it: glycan printed on slide via spacer; PBS, 1 mM MgCl2, 1 mM CaCl2; protein pre-complexed with anti-His and labelled secondary antibodies. From the text:
glycan array, fluorescence on RrgB T4

[1] abbreviates: read-out: RrgA TIGR4, free oligosaccharide, protein immobilised on CM5 chip, glycans 160 nM to 100 µM.

RrgA SPEC6B, sequence (A7KT31 entry or part of it): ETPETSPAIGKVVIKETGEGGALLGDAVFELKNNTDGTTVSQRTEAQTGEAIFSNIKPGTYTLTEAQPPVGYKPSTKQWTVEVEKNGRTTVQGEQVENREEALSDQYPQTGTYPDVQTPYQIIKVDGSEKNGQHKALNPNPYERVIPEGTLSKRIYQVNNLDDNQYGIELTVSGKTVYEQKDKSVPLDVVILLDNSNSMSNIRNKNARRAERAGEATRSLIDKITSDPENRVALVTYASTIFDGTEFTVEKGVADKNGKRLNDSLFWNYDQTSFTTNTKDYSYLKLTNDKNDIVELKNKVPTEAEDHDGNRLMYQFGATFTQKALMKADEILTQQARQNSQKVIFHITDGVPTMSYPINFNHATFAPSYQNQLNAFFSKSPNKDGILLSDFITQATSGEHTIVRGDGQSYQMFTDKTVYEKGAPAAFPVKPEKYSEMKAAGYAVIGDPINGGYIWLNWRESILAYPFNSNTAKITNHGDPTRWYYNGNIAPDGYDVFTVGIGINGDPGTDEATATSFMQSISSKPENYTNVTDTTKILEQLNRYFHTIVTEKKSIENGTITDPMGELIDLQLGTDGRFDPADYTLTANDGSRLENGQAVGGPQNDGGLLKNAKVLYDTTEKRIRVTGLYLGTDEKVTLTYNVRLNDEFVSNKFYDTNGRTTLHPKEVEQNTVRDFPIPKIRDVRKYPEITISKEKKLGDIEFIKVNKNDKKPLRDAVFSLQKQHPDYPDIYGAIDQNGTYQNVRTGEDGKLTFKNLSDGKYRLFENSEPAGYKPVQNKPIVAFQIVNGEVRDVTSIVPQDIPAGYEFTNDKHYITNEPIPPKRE
T1 sequence (A0A0H2UNT6 entry or part of it): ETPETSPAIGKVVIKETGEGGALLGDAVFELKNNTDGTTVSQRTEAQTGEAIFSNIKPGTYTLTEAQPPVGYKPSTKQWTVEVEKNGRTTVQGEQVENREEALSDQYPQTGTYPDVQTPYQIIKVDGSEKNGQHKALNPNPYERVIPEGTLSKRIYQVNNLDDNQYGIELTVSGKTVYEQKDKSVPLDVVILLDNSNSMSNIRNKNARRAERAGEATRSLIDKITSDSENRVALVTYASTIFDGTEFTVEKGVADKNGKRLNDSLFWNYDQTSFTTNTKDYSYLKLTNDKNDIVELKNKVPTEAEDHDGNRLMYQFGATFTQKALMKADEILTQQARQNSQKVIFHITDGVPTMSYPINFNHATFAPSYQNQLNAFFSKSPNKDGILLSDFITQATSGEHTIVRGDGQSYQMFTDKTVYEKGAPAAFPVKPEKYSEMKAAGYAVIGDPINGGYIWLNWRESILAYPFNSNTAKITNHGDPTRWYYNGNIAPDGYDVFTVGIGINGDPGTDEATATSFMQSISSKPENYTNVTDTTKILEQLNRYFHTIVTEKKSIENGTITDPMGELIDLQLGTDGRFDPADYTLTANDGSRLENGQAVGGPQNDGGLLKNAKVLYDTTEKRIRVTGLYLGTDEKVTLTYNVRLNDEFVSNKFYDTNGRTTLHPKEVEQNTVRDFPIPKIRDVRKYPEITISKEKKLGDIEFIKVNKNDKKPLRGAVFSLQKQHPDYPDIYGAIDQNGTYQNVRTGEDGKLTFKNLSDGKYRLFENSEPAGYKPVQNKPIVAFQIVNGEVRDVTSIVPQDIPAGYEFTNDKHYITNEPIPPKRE
T2 sequence (A0A0H2UNM0 entry or part of it): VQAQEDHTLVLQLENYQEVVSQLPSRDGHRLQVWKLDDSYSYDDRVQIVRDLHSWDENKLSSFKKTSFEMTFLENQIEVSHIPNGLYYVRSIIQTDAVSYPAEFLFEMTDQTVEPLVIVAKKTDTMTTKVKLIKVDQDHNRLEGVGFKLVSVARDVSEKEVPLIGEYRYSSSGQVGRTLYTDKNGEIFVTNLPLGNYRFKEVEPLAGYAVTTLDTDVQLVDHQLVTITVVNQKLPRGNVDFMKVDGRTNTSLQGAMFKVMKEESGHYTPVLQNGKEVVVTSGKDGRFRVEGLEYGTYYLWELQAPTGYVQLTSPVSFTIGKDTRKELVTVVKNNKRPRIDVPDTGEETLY
T3 sequence (A0A0H2UNM7 entry or part of it): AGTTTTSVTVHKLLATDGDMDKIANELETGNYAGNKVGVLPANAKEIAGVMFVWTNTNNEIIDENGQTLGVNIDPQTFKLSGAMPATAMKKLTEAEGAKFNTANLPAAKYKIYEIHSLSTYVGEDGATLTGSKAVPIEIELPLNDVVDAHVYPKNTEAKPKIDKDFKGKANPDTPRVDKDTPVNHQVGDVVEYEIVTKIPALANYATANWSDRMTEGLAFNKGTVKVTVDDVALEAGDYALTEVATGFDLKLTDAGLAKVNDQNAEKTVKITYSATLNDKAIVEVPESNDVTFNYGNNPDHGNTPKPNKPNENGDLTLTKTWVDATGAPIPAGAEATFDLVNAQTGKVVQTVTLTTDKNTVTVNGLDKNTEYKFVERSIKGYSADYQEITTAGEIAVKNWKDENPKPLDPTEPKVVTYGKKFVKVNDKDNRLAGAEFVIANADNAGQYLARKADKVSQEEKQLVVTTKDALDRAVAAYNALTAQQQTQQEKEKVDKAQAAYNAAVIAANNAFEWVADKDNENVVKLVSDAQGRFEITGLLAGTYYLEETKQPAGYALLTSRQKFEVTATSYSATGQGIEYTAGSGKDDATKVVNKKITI

In the case of `CC(=O)N[C@H]1[C@H](O[C@H]2[C@@H](O)[C@@H](CO)O[C@@H](O[C@H]3[C@H](O)[C@@H](O)C(O)O[C@@H]3CO)[C@@H]2O)O[C@H](CO)[C@@H](O)[C@@H]1O[C@@H]1O[C@H](CO)[C@H](O)[C@H](O)[C@H]1O` (stereo partly shown) [1G, Lacto-N-tetraose], the Kd was found to be 869 ± 454 nM at RrgA SPEC6B and 1030 ± 50 nM at RrgA TIGR4 (RrgA T4) (setting [1]).

For the compound `CC(=O)N[C@H]1[C@@H](O[C@H]2[C@@H](O)[C@@H](CO)OC(O)[C@@H]2O[C@@H]2O[C@@H](C)[C@@H](O)[C@@H](O)[C@@H]2O)O[C@H](CO)[C@H](O)[C@@H]1O` (stereo partly shown) [7K, Blood group A tri], the Kd at RrgA SPEC6B stood at 1400 ± 290 nM; on RrgA TIGR4 (RrgA T4) (setting [1]) it was 916 ± 66.4 nM. In the case of `CC(=O)N[C@H]1[C@@H](O[C@H]2[C@@H](O)[C@@H](CO)O[C@@H](O[C@H]3[C@@H](O)[C@@H](CO)OC(O)[C@@H]3NC(C)=O)[C@@H]2O[C@@H]2O[C@@H](C)[C@@H](O)[C@@H](O)[C@@H]2O)O[C@H](CO)[C@H](O)[C@@H]1O` (stereo partly shown) [Blood group A type3/4], the Kd on RrgA SPEC6B is 644 ± 157 nM; at RrgA TIGR4 (RrgA T4) (setting [1]), 871 ± 286 nM. In the case of `CC(=O)N[C@H]1C(O)O[C@H](CO)[C@H](O)[C@@H]1O[C@@H]1O[C@H](CO)[C@H](O)[C@H](O)[C@H]1O[C@@H]1O[C@@H](C)[C@@H](O)[C@@H](O)[C@@H]1O` (stereo partly shown) [Blood group H type 3/4], the Kd came to 358 ± 51 nM on RrgA SPEC6B and 89.4 ± 16 nM at RrgA TIGR4 (RrgA T4) (read-out: RrgA TIGR4, free oligosaccharide, protein immobilised on CM5 chip, glycans 160 nM to 100 µM (value below tested range)).

Consider `CC(=O)N[C@H]1C(O)O[C@H](CO)[C@@H](O[C@@H]2O[C@H](CO)[C@H](O)[C@H](O)[C@H]2O)[C@@H]1O[C@@H]1O[C@@H](C)[C@@H](O)[C@@H](O)[C@@H]1O` (stereo partly shown) [Lewis X], for which the Kd turned out to be 363 ± 107 nM on RrgA SPEC6B and 434 ± 118 nM on RrgA TIGR4 (RrgA T4). Turning to `OC[C@H]1O[C@@H](O[C@H]2[C@H](O)[C@@H](O)C(O)O[C@@H]2CO)[C@H](O)[C@@H](O)[C@@H]1O` (stereo partly shown) [cellobiose], at RrgA SPEC6B, the Kd came out at 583 ± 155 nM. Turning to `CC(=O)N[C@H]1[C@H](O[C@H]2[C@H](O)[C@@H](NC(C)=O)C(O)O[C@@H]2CO)O[C@H](CO)[C@@H](O)[C@@H]1O` (stereo partly shown) [chitobiose], the Kd at RrgA SPEC6B is 426 ± 144 nM; on RrgA TIGR4 (RrgA T4) (setting [1]), 409 ± 160 nM. In the same order, the values of `OC[C@H]1O[C@H](O[C@H]2[C@H](O)[C@@H](O)C(O)O[C@@H]2CO)[C@H](O)[C@@H](O)[C@@H]1O` (stereo partly shown) [maltobiose] are 964 ± 226 nM and 1160 ± 90 nM. Regarding “Fucα1-2Galβ1-3(Fucα1-4)GlcNAcβ1-3Galβ1-4Glcβ-sp4 [compound 496]”, the “RrgC T4” value on RrgC T4 stood at 1192 ± 322.

Turning to “Galα1-3Galβ1-4GlcNAcβ-sp3 [compound 222]”, on RrgC T4, the “RrgC T4” value was 3108 ± 641. As to Galβ1-6Galβ-sp4 [compound 100], the “RrgC T4” value at RrgC T4 was 3443.5 ± 523. Turning to Manα1-3Manβ-sp4 [compound 120], the “RrgB T4” value on RrgB T4 came out at 1332 ± 275.
